# Counter-ions that a name gives are not always drawn.
# Target: cGMP-PDE (Homo sapiens, UniProt O76074)
# Test: Inhibitory effect on cGMP-PDE
# Type: biochemical
# Conditions: PDE IC isolated from human platelets; 3H-cGMP substrate 0.2 mM; pH 8.0; DMSO 2.5%
# Method: Typically, connective tissue and adventitia were removed and 1-2 units of platelets were suspended in 10 volumes of buffer A (20 mM Tris-HCl, pH 7.5, containing 2 mM magnesium acetate, 1 mM dithiothreitol, and 5 mM Na2EDTA) using a Brinkman polytron. The proteinase inhibitors leupeptin, pepstatin A, and phenylmethyl-sulfonyl fluoride (PMSF) were also included in this buffer (final concentration of 100 nM each). The homogenate was centrifuged at 100,000g for 60 minutes. The supernatant was then removed and filtered through four layers of cheesecloth. The supernatant was applied to a DWAE-Trisacryl M column. The column was washed with several bed volumes of buffer B (20 mM Tris-HCl, pH 7.5, containing 2 mM magnesium acetate, 1 mM dithiothreitol, and proteinase inhibitors) and eluted by two successive linear NaCl gradients (0.05-0.15M, 300 ml total; 0.15-0.40M, 200 ml total). Five milliliter fractions were collected and assayed for cyclic GMP PDE activity.
# The concentration of substrate (^3 H-cGMP) was 0.2 mM. Compounds of the present invention were dissolved in dimethyl sulfoxide (DMSO) at a final concentration of 2.5%. This concentration of DMSO inhibited enzyme activity by approximately 10%.
row,SMILES,IC50 [nM]
1,"CN(C)c1ccc(CNc2nc(-c3cccnc3)nc3ccccc23)cc1 [3(o), 4-(4-(N,N-dimethylamino)phenylmethyl)amino-2-(3-pyridyl)quinazoline trihydrochloride]",2400
2,"CN(C)S(=O)(=O)c1ccc2nc(-n3ccnc3)nc(NCc3ccccc3)c2c1 [6(j), 6-dimethylaminosulfonyl-4-phenylmethylamino-2-(1-imidazolyl)quinazoline hydrochloride]",135
3,"C#Cc1ccc2nc(-n3ccnc3)nc(NCc3ccccc3)c2c1 [18(b), 2-(1-imidazolyl)-4-phenylmethylamino-6-ethynylquinazoline dihydrochloride]",0.53

# The remaining compounds from weak to strong by IC50, led by results:
row,IC50 [nM],SMILES
1,300,"c1ccc(CNc2nc(Cn3ccnc3)nc3ccccc23)cc1 [6(b), 4-phenylmethylamino-2-((1-imidazolyl)methyl)quinazoline dihydrochloride]"
2,200,"C(=C\c1nc(NCc2ccccc2)c2ccccc2n1)/c1cccnc1 [Example 7, 4-phenylmethylamino-2-(2-(3-pyridyl)vinyl)quinazoline]"
3,46,"C#Cc1ccc2nc(-n3ccnc3)nc(NCCOC)c2c1 [Example 18, 6-ethynyl-4-(2-methoxyethyl)amino-2-(1-imidazolyl)quinazoline]"

# Target: T1, TXA2 synthetase (Rattus norvegicus, UniProt P49430)
# T1 construct: whole blood was collected from abdominal aorta; from tissue; host or cells: freshly drawn heparinized whole blood of male Wistar rats
# T1 sequence (P49430 1-533): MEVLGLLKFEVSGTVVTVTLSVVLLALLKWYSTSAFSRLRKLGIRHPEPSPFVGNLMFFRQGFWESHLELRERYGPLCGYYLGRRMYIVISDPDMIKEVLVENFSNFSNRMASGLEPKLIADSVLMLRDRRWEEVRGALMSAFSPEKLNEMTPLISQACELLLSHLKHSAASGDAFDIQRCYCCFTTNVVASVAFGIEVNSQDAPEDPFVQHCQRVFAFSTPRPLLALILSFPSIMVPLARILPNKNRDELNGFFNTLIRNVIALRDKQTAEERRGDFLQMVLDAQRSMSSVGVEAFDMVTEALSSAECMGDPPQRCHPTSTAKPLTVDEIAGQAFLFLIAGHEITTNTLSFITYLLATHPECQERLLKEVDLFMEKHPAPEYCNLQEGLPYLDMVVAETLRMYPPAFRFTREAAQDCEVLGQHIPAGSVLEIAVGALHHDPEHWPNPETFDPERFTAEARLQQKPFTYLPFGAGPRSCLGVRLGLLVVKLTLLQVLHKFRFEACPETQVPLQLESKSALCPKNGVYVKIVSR
# Test: Inhibitory effect on TXA2 synthetase (TXB2 synthesis in A23187-stimulated heparinized whole blood)
# Type: cell-based, Male Wistar rats
# Conditions: 37° C, Ca ionophore A23187 30 μM, TXB2 by EIA
# Method: Male Wistar rats were starved overnight. Five hundreds microliter of heparinized (10 U/mL) whole blood was collected from abdominal aorta using polyethylene syringe (needle: 22 or 26G). The blood freshly drawn from animal was preincubated with 5 μL of test compound at 37° C. Five minutes later, 2.5 μL of 6 mM of Ca ionophore A23187 (final concentration of 30 μM) was added into tube, and incubation mixture was further incubated for 15 min. The reaction was terminated by centrifugation of tubes at 12,000 rpm for 2 min. TXB2 content in the supernatant was determined by EIA as follows.
# One milliliter of 0.5M glycine-HCl buffer (pH 3.2) was added to 100 μL of sample. The samples were mixed well and centrifuged at 1,700 G for 10 min at 4° C. The extracted supernatant was applied to a SEP-PAK (registered Trade Mark) C18 cartridge (Waters Assoc.). After washing with 10 mL of distilled water followed by 10 mL each of 15% ethanol and petroleum ether, the sample was eluted with 3 mL of ethyl acetate. The ethyl acetate fraction was evaporated to dryness under gentle N2 stream and the residue was dissolved in EIA buffer (final volume of 1 mL) following the addition of 300 μL of 0.01M NaHCO3 -NaOH buffer (pH 10.0). EIA for TXB2 was carried out according to a legend attached to the kit (Chyman Chemical Co., Inc.). Overall recovery of TXB^2 in this extraction procedure was 90%. […]
row,IC50 [nM],SMILES
1,2400,"C#Cc1ccc2nc(-n3ccnc3)nc(NCCOC)c2c1 [Example 18, 6-ethynyl-4-(2-methoxyethyl)amino-2-(1-imidazolyl)quinazoline]"
